The nature of series [1]: In vitro drug release of BA (USP type II paddle, HPLC). In kind it is physicochemical. To be noted: after 24 h; pH 5.8, 2.5% SLS, 37°C. How it is done:
In vitro drug release study was conducted in PBS (pH 5.8) containing 1% volpo. Briefly, 50 mg of free drug or equivalent amount of SD form of BBR and BA were dispersed in 500 ml of release medium and the drug release profile was studied at pH 5.8. Release studies were performed according to the USP type II paddle method, at 37±0.5°C while stirring constantly at 50 rpm. Samples were withdrawn at different time points, centrifuged and drug content in the samples was analyzed by spectrometric method of analysis. The withdrawn samples were replaced by equal volumes of fresh medium maintained at the same temperature. Except replacing the 1% Volpo with 2.5% SLS, similar conditions were maintained for the in vitro drug release studies of BA in free drug and SD forms. The released BA concentrations were measured by established HPLC method.

Series [2] concerns H1650 metastatic lung tumors. Nature of the series: H1650 metastatic lung cancer model. In kind it is in vivo, athymic Nu/nu mice. To be noted: 100 mg/kg orally daily for 3 weeks. The protocol:
(§1) A549 cells were grown in F12K Medium containing 10% FBS and standard antibiotic mix at 5% CO2 and 37°C. For orthotopic lung tumor model, mice were anesthetized with Isoflurane and a 5 mm skin incision was made to the left chest, 5 mm below the scapula. Hamilton syringes (1 ml) with 28-gauge hypodermic needles were used to inject the cell inoculums through the sixth intercostal space into the left lung. The needle was quickly advanced to a depth of 3 mm and quickly removed after the injection of the A549 cells (2 million/mouse) suspended in 100 µL PBS (pH 7.4) into the lung parenchyma. For metastatic lung tumor models H1650 cells (2 million in 100 µL PBS) were intravenously administered to mice via tail vein. […] Only cell suspensions of >95% viability as determined by tryphan blue exclusion were used. Wounds from the incisions were closed with surgical skin clips. […] Drug treatment was started 2 weeks after the tumor cell implantation. BBR free drug or SD formulation was given orally at the dose of 100 mg/kg daily for 3 weeks. […] Body weights were monitored throughout the study. Animal survival rates were recorded during the study. The lung weights and tumor volumes were used for assessment of therapeutic activity of the treatments. After sacrificing the animals lung weights and tumor nodules were recorded in metastatic tumor models.

The subject of another series is H1650 cells. Description: In vitro cytotoxicity, crystal violet staining. In kind it is cell-based. To be noted: Homo sapiens, NCI-H1650; BA, 72 h treatment. How it is done:
(§2) NSCLC cells A549 and H1650 were plated in 96 well plates at 10,000 cells/well density. After 24 h, cells were treated with various concentrations of BBR and BA. DMSO (0.1%) treated cells were considered as control cells. After 72 h treatment, cells were fixed in 0.25% gultaraldehyde and stained with 0.05% crystal violet staining. Percent of cell viability or cell kill was calculated by considering DMSO treated control cells as 100% viable (zero % cell kill).

The next series deals with A549 cells. Nature of the series: In vitro cytotoxicity, crystal violet staining. In kind it is cell-based. The following applies: Homo sapiens, BA, 72 h treatment. How it is done: as §2
The test system of the next series is Bax. Nature of the series: Real time PCR of tumors. In kind it is in vivo, athymic Nu/nu mice. To be noted: normalised to β-actin. How it is done:
(§3) Total RNA was extracted from tumors using RNeasy Kit and quantified by UV method using Nanodrop system. RNA was converted to complementary DNA using RT^2 First Strand Kit and RT^2 SYBR Green ROX qPCR Mastermix as per manufacturer's instructions. p38, Phospho-JNK, Bax, Bcl-2, cleaved caspase 8, cleaved caspase 3, survivin and BAD, mRNA expressions amplification was performed on an ABI 7300 RT-PCR (Applied Biosystems, Carlsbad, CA, USA) and data analysis done with a PCR Array Data Analysis Software (SA Biosciences, Valencia, CA, USA). The mRNA levels of p38, Phospho-JNK, Bax, Bcl-2, cleaved caspase 8, cleaved caspase 3, survivin and BAD and β-actin were calculated. The β-actin was a normalization control for gene expression.
For orientation: Quantitative PCR measures a nucleic acid by following its amplification.

The test system of another series is cleaved caspase-8. Description: Real time PCR of tumors. The format is in vivo, athymic Nu/nu mice. The following applies: normalised to β-actin. The protocol: as §3
A further series deals with p38. Nature of the series: Real time PCR of tumors. The format is in vivo, athymic Nu/nu mice. The following applies: normalised to β-actin. The protocol: as §3
The next series relates to Bcl-2. Nature of the series: Real time PCR of tumors. In kind it is in vivo, athymic Nu/nu mice. The following applies: normalised to β-actin. The protocol:
as §3

For the next series, the system named is Phospho-JNK. Nature of the series: Real time PCR of tumors. The following applies: normalised to β-actin. In kind it is in vivo, athymic Nu/nu mice. How it is done: as §3
The test system of another series is cleaved caspase-3. Description: Real time PCR of tumors. The format is in vivo, athymic Nu/nu mice. To be noted: normalised to β-actin. The protocol:
as §3

Series [3] concerns A549 orthotopic lung tumors. Description: A549 orthotopic lung cancer model. In kind it is in vivo, athymic Nu/nu mice. The following applies: 100 mg/kg orally daily for 3 weeks. The protocol: as §1
Series [4] concerns TUNEL positive apoptotic cells. Nature of the series: TUNEL assay on orthotopic lung tumor sections. The format is in vivo, athymic Nu/nu mice. The protocol: Terminal deoxynucleotidyl transferase-mediated dUTP nick end labeling (TUNEL) assay was used to study the DNA fragmentation or apoptosis detection. TUNEL assay was performed on 4–5 µm thick sections as per the kit manual. Formalin-fixed tumor tissues were embedded in paraffin and sectioned ([…]). DeadEndTM Colorimetric Apoptosis Detection System (Promega, Madison, WI) allows the recognition of apoptotic nuclei in paraffin-embedded tissue sections fixed on slides according to the manufacturer's protocol. Briefly, the equilibration buffer was added to slides and incubated for 10 minutes followed by 10-minute incubation in […] proteinase K solution. The sections were washed in PBS and incubated with TdT enzyme at 37°C for 1 h in a humidified chamber for incorporation of biotinylated nucleotides at the 3-OH ends of DNA. The slides were incubated in horseradish peroxidase-labeled streptavidin to bind the biotinylated nucleotides followed by detection with stable chromagen DAB. The images on the slides were visualized with an Olympus BX40 light microscope equipped with a computer-controlled digital camera (DP71, Olympus Center Valley, PA, USA). Three slides per group were stained and apoptotic cells were identified by dark brown […] staining.

Series [5] can be described thus: Oral pharmacokinetic study. In kind it is in vivo, Sprague Dawley rats. How it is done: Rats were fasted overnight before the start of the experiments and randomly divided into two experimental groups. […] Pharmacokinetic parameters were analyzed using non-compartmental techniques with WinNonlin® 5.0 software (Pharsight Corporation, Mountain View, CA, USA). SHAM analysis (i.e., Slope, Height, Area, and Moment) utilized plasma concentration-time data to estimate the area under the curve (AUC), apparent terminal elimination rate constant (λz), terminal elimination half-life (t1/2) and the area under the first moment of the plasma concentration–time curve (AUMC). The AUC was calculated for each rat using the piecewise log trapezoidal areas and extrapolated to infinity by dividing λz into the last measured plasma concentration (i.e. Clast/λz). From the values of AUC0_0-∞ and AUMC0-∞, the clearance (CL), mean residence time (MRT) and volume of distribution at tissue equilibrium (Vss) were calculated based on noncompartmental monoexponential assumptions as: CL = Dose/AUC, MRT≅AUMC/AUC and Vss = CL×MRT. The noncompartmental parameters were calculated for each rat before averaging dose groups. The pharmacokinetic parameters such as AUC, Cmax, t1/2, tmax, MRT, etc were compared between the free drug and SD formulations.

The mark [6] stands for this setting: Sprague Dawley, rat, plasma, po, 100 mg/kg orally.

This is an account of results in article PMC3948684, “Approaches to Improve the Oral Bioavailability and Effects of Novel Anticancer Drugs Berberine and Betulinic Acid” (PLoS ONE, 2014).

In brackets after ≈: the same amount, converted by molar mass. Bounds are passed on as bounds.

Protocol for Caco-2 cell monolayers: Caco-2 cells (passage #29) were cultured at 37°C with culture medium replaced every 2 days in an atmosphere of 5% CO2 and 95% relative humidity. Cells were harvested upon reaching approximately 80-90% confluence with 0.25% trypsin–EDTA. Cells were grown on 1.12 cm^2 0.4 μm pore polycarbonate membrane inserts in 12 mm × 12 transwell permeable support plates (Corning, NY, USA). Caco-2 cells were seeded onto membranes at 50,000 cells/well. Individual wells received 1.5 mL of culture medium at the bottom and 0.5 mL of medium was added to the top of inserts which was changed on alternate days. Confluent monolayers were used for permeability studies at ~21 days post seeding. Transepithelial electrical resistance (TEER) of Caco-2 monolayers was measured prior to all experiments using the EVOM volt-ohm-meter (Millicell-ERS; Millipore, USA) to ensure monolayer integrity. The TEER (Ω·cm^2) values of the cell monolayers were determined by the resistance (Ω) × effective membrane area (cm^2). TEER values were measured across each cell monolayer prior to beginning the experimentation and at the last sample collection time point. Transport studies were initiated by removing culture medium from the apical (A) and basolateral (B) sides of the cell monolayer. […] The effective permeability (Peff) (cm/s) was determined using Eq. 1: […]

Turning to `C=C(C)[C@@H]1CC[C@]2(C(=O)O)CC[C@]3(C)[C@H](CC[C@@H]4[C@@]5(C)CC[C@H](O)C(C)(C)[C@@H]5CC[C@]43C)[C@@H]12` [BA free drug, 3β, hydroxy-lup-20(29)-en-28-oic acid], the drug release in series [1] is recorded as 11.3%. In addition, in [2], the “decrease of tumor nodules in the peripheral lobes” value was 1.31 fold and the “tumor weights reduced to, compared to untreated control” value was determined as 75.94%. Also, the IC50 in the series on H1650 cells is 7.25 ± 1.54 mg/L (≈ 15.9 µM). In addition, in the series with A549 cells, inhibition was half-maximal at 8.92 ± 1.68 mg/L (≈ 19.5 µM) (IC50). The “Bax mRNA expression increased compared to control” value in the series on Bax was 1.08 fold. In the series with cleaved caspase-8, the “cleaved caspase-8 mRNA expression higher than control” value worked out at 1.25 fold. In the series with p38, the “p38 mRNA expression increased compared to control” value was 1.20 fold. In addition, the “Bcl-2 mRNA expression down regulated compared to untreated control” value in the series with Bcl-2 was 1.36 fold. Also, the “Phospho-JNK mRNA expression increased compared to control” value in the series with Phospho-JNK was 1.69 fold. Further, the “cleaved caspase-3 mRNA expression higher than control” value in the series on cleaved caspase-3 came to 1.30 fold. In [3], the lung tumor weights was 404.31 ± 29.50 mg, the “reduction in tumor volumes compared to untreated control” value turned out to be 27.72% and the “reduction in tumor weights compared to untreated control tumors” value was “Approximately 31.11%”. Further, in series [4], the “increase in TUNEL positive apoptotic cells compared to control tumors” value was 8.14 fold. Also, the CL in series [5] (100 mg/kg orally) was found to be 0.113 ± 0.0175 mL/min/kg. Further, in series [5] (BA, 100 mg/kg orally), the “AUMC (0-∞)” value stood at 116.04±23.13 µg.h^2/ml and the Vd turned out to be 0.12243 ± 0.01586 L/kg. Also, the half-life in series [5] (Sprague Dawley, rat, plasma, po, 100 mg/kg, read-out: t½ (converted)) is 12.3 ± 3.68 h. In series [5] (setting [6]), the MRT came out at 15.1 ± 3.86 h and the Tmax stood at 2.36 ± 0.38 h. In addition, the AUC(0-inf) in [5] (Sprague Dawley, rat, plasma, po, BA, 100 mg/kg orally) was found to be 7.26 ± 1.65 µg·h/mL. Also, the peak level in series [5] (Sprague Dawley, rat, po, BA, 100 mg/kg orally, plasma) (Cmax) was 1.16 ± 0.22 µg/mL.
Lucifer Yellow: the “mean permeability of paracellular control” value in the series with Caco-2 cell monolayers is less than 1.5 nm/s.

A word on the IC50: it is the concentration that gives 50% inhibition. Low readings indicate greater potency in that assay, high ones weaker potency in that assay. Broadly, the MRT is a mean duration of stay, worked out from the concentration-time curve. As a reminder, the Tmax is the time at which the peak concentration occurs. As usually defined, the AUC(0-inf) is total exposure, with the tail of the curve extrapolated. A lower AUC(0-inf) goes with low exposure. A word on the Cmax: it is the maximum level reached in the sampled fluid or tissue.
